Assay results published in patent US20250136578A1 (Kolm Therapeutics Inc., priority 2023, published 2025).
Where two headings read alike, the source gives them in different places.

Experiments:
AR / CBP ternary complex = AR / CBP ternary complex (Homo sapiens, UniProt P10275+Q92793); test: Ternary complex formation assay (sandwich ELISA, AR capture, CBP antibody detection) in VCaP cell lysates; type: cell-based
Protocol: Black MaxiSorp plates: coat with 50 μL of mouse 1/50 diluted AR antibody (Monoclonal Antibody (AR 441 from Thermo Fisher); diluted in phosphate buffered saline (PBS). Spin the liquid to the bottom of the wells, if necessary. Incubate overnight at 4° C. Next day, wash 3 times with 200 μL of TBST. Block with 200 μL of blocking buffer (5% BSA in TBST) at room temperature for 2 hours (BSA: A4503 or A2153 from Sigma). Wash plates 3 times with TBST. Plates are ready for lysates Preparation of dimerizer treated lysates
Culture cells in 96 wells at 50K VCaP cells/well for at least 3 days. Plate in 5% Omega charcoal stripped FBS in total volume of 200 uL. Treat with bifunctional for 1.5 hours by adding 1 μL of 200× stock in DMSO. Aspirate media/compound. Add and pipet-to-mix 70 μL of 1× AlphaLisa Lysis Buffer to each well (Perkin Elmer, AlphaLISA SureFire Ultra, diluted in water). Pipet up and down when adding lysis buffer to disrupt cells. Let lysis proceed for 30 min at 4° C.
Incubate for 1 hour at room temperature. Flick out the lysates. Wash 3 times with TBST. Add 75 μL of rabbit CBP or p300 antibody to each well (diluted 1:5000 in blocking buffer (5% BSA in TBST). CBP antibody: (D6C5) Rabbit mAb #7389; p300 antibody: (D8Z4E) Rabbit mAb #86377. Incubate overnight at 4° C. Wash 3 times with 300 uL TBST, each time on shaker for 5-10 min. Prepare goat anti-rabbit antibody conjugated to HRP (1/100K dilution in blocking buffer) Invitrogen Catalog number: 32260. Add 75 μL of HRP-conjugated goat anti-rabbit antibody. Incubate at room temperature for 1 hour. Flick out the HRP-antibody mixture. Wash 7-8 times with TBST, each time on shaker for 10 min. Later washes try to overflow the wells so that no residual HRP remains bound to the sides of the well. Prepare and add 75 uL/well of QuantaRed Enhance Chemifluorescent HRP Substrate solution. Immediately read fluorescence on BMG ClarioStar (ex: 570/em 585), and repeat the read in 5 minutes and 15 minutes.

VCaP cells = test: VCaP growth inhibition assay (CTG); type: cell-based; conditions: Homo sapiens, 216 h, 30 pM R1881, 9 days
Protocol: VCaP cells (ATCC Cat #CRL-2876) are plated at 1×10^4 cells per well of a white plastic 96-well cluster plate (Thermo Scientific Nunc Cat #165306) in 100 uL phenol red-free DMEM (Gibco Cat #21063-029) media with 5% CSS (Omega Scientific Cat #FB-04). Cluster plates are returned to the incubator (37*C/5% CO2) for 72 hours prior to treatment. Just prior to treatment, 100 uL of phenol red-free DMEM/5% CSS and 60 pM R1881 (Sigma Cat #R0908-10 mg) was added to each well of the cluster plates (Final R1881 concentration=30 pM). Compounds (200X) were added to each well in a volume of 1 uL, with serial dilutions (1:5) from 20 uM to 2 pM (final concentrations in well are 100 nM to 10 fM). Cluster plates are returned to the incubator for 9 days.
After the 9-day treatment period, media was removed from the cluster plates by inversion and 100 uL room temperature CTG reagent (Promega Cat #G7573) is added to each well. The cluster plates are placed on a shaker and incubated at room temperature for 20 minutes. Following this shaking/incubation, cluster plates are read on a luminometer (BMG ClarioStar). IC50 values are obtained by graphing the RLU data vs. compound concentration with nonlinear regression 4-parameter logistic curves (GraphPad Prism).

[1] = treated 1.5 hours, rabbit CBP or p300 antibody detection, average, read-out: Average Ternary Complex

Sequence of AR / CBP ternary complex (P10275 whole entry): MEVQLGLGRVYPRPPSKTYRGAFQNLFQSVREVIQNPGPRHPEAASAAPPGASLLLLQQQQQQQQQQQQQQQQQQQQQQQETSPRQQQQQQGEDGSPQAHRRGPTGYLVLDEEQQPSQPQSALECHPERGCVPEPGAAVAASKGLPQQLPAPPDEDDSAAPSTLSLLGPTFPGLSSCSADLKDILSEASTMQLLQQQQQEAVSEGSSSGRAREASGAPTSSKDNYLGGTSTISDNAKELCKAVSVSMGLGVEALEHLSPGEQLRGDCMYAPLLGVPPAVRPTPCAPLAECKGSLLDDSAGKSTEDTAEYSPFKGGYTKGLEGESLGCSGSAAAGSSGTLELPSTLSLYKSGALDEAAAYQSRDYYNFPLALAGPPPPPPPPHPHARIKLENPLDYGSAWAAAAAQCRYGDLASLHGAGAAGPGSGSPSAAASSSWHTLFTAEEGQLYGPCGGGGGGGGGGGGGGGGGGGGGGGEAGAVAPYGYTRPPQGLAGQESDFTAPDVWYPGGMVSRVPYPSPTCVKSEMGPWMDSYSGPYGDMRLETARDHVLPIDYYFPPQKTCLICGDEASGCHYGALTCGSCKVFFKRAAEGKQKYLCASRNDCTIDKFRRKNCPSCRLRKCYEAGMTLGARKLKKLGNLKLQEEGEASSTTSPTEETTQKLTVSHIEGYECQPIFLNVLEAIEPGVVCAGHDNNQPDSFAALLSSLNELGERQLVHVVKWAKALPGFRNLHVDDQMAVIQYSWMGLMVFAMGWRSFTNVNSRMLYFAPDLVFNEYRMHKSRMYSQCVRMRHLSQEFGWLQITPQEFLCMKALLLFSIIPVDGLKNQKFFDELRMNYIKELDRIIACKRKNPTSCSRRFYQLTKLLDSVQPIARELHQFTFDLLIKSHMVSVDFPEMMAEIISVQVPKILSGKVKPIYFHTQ
Sequence of AR / CBP ternary complex (Q92793 2-2442): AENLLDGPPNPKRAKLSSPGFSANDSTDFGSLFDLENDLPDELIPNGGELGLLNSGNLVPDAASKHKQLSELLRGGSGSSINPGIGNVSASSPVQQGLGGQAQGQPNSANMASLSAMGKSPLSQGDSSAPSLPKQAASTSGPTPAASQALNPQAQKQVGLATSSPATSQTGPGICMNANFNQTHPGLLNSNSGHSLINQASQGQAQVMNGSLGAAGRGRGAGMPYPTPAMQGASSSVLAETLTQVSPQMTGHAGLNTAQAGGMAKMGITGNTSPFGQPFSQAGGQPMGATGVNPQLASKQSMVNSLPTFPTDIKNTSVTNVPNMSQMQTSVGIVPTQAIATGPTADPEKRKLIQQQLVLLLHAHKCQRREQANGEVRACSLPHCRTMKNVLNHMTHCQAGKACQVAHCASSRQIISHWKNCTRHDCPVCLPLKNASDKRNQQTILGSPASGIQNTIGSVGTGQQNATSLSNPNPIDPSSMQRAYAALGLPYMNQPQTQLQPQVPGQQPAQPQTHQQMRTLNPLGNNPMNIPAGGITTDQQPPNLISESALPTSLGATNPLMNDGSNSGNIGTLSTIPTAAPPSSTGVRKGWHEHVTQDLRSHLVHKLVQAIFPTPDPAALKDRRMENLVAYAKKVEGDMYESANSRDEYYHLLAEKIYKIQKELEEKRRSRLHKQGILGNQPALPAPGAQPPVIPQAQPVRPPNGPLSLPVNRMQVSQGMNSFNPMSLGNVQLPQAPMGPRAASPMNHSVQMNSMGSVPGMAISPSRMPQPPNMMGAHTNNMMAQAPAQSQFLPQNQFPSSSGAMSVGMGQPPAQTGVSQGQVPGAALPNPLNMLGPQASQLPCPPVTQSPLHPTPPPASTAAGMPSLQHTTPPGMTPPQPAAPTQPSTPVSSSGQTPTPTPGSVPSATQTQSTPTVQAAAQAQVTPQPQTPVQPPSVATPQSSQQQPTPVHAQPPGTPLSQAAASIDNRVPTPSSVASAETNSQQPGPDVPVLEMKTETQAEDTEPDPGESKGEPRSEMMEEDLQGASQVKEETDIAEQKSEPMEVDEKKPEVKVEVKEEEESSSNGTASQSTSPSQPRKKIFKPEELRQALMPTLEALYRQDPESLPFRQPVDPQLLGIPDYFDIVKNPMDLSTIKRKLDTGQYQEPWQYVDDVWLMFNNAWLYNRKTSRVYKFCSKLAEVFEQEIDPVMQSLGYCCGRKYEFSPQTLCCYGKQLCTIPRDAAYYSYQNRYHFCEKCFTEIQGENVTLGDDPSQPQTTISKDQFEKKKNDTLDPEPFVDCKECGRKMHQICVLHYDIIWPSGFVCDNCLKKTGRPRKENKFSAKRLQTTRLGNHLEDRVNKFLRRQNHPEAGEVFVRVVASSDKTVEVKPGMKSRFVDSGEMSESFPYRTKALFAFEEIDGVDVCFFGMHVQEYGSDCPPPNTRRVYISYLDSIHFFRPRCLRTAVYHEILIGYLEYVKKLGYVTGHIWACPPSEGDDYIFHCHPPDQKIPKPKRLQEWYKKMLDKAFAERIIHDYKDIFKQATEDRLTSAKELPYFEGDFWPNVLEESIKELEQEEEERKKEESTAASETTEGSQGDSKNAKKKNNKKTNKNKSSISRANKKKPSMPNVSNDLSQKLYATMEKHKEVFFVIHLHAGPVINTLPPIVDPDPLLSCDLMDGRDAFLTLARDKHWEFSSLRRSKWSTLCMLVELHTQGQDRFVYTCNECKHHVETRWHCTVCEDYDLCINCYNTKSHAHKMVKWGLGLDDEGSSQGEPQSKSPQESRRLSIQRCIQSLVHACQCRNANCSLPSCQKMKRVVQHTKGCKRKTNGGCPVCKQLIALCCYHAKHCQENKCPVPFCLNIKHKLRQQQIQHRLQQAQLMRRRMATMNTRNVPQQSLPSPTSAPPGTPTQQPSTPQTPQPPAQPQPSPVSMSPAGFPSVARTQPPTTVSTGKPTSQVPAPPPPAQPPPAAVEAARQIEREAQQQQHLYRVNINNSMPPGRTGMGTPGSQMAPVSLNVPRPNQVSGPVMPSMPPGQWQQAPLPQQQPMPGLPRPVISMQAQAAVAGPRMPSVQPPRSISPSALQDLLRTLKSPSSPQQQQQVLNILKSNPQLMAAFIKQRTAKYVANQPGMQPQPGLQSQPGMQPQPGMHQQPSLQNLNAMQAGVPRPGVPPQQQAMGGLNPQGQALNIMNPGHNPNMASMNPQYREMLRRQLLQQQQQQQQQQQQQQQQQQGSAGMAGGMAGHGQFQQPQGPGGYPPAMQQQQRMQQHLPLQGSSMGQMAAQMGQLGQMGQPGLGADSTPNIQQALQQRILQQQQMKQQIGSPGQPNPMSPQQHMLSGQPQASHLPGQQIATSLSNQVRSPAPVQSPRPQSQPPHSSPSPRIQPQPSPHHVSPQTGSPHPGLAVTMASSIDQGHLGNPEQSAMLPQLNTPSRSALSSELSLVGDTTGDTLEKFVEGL

Structure (SMILES) | EC50 (AR / CBP ternary complex; [1]) | IC50 (VCaP cells) | EC50 (AR / CBP ternary complex; read-out: Average Ternary Complex, treated 1.5 hours, rabbit CBP or p300 antibody detection)
CC(=O)N1CCc2c(c(N3CCCc4cc(-c5cnn(C)c5)c(C(F)F)cc43)nn2[C@@H]2CCN(CC3CCN(c4ccc(C(=O)N[C@H]5CC[C@H](Oc6ccc(C#N)c(Cl)c6)CC5)nn4)CC3)C[C@H]2F)C1 [Compound 141, 6-[4-[[(3R,4R)-4-[5-acetyl-3-[7-(difluoromethyl)-6-(1-methylpyrazol-4-yl)-3,4-dihydro-2H-quinolin-1-yl]-6,7-dihydro-4H-pyrazolo[4,3-c]pyridin-1-yl]-3-fluoro-1-piperidyl]methyl]-1-piperidyl]-N-[4-(3-chloro-4-cyano-phenoxy)cyclohexyl]pyridazine-3-carboxamide] | < 1 nM | ≤ 0.1 nM | –
CC(=O)N1CCc2c(c(N3CCCc4cc(-c5cnn(C)c5)c(C(F)F)cc43)nn2C2CCC3(CC2)CC(Oc2ccc(C(=O)N[C@H]4CC[C@H](Oc5ccc(C#N)c(C(F)(F)F)c5)CC4)nn2)C3)C1 (stereo partly shown) [Compound 246, 6-[7-[5-acetyl-3-[7-(difluoromethyl)-6-(1-methylpyrazol-4-yl)-3,4-dihydro-2H-quinolin-1-yl]-6,7-dihydro-4H-pyrazolo[4,3-c]pyridin-1-yl]spiro[3.5]nonan-2-yl]oxy-N-[4-[4-cyano-3-(trifluoromethyl)phenoxy]cyclohexyl]pyridazine-3-carboxamide] | < 1 nM | 1 to 100 nM | –
CC(=O)N1CCc2c(c(-c3cccc4cc(-c5ccc(CCC6CCN(c7ccc(C(=O)N[C@H]8CC[C@H](Oc9ccc(C#N)c(Cl)c9)CC8)cn7)CC6)nc5)ncc34)nn2C2CCOCC2)C1 [Compound 165] | < 1 nM | 0.1 to 1 nM | –
CC(=O)N1CCc2c(c(N3CCCc4cc(-c5cnn(C)c5)c(C(F)F)cc43)nn2C2CCN(CC3(C)CCN(c4ccc(C(=O)N[C@H]5CC[C@H](Oc6ccc(C#N)c(Cl)c6)CC5)nn4)CC3)CC2)C1 [Compound 100, 6-[4-[[4-[5-acetyl-3-[7-(difluoromethyl)-6-(1-methylpyrazol-4-yl)-3,4-dihydro-2H-quinolin-1-yl]-6,7-dihydro-4H-pyrazolo[4,3-c]pyridin-1-yl]-1-piperidyl]methyl]-4-methyl-1-piperidyl]-N-[4-(3-chloro-4-cyano-phenoxy)cyclohexyl]pyridazine-3-carboxamide] | < 1 nM | 0.1 to 1 nM | –
CC(=O)N1CCc2c(c(N3CCCc4cc(C#N)ccc43)nn2[C@H]2C[C@H](CC3CCN(c4ccc(C(=O)N[C@H]5CC[C@H](Oc6ccc(C#N)c(Cl)c6)CC5)nn4)CC3)C2)C1 [Compound 77, 6-[4-[[3-[5-acetyl-3-(6-cyano-3,4-dihydro-2H-quinolin-1-yl)-6,7-dihydro-4H-pyrazolo[4,3-c]pyridin-1-yl]cyclobutyl]methyl]-1-piperidyl]-N-[4-(3-chloro-4-cyano-phenoxy)cyclohexyl]pyridazine-3-carboxamide] | 1 to 10 nM | 0.1 to 1 nM | –
CC(=O)N1CCc2c(c(-c3cccc4cc(-c5ccc(COCC6CCN(c7ccc(C(=O)N[C@H]8CC[C@H](Oc9ccc(C#N)c(Cl)c9)CC8)nn7)CC6)nc5)ncc34)nn2C)C1 [Compound 21, 6-[4-[[5-[8-(5-acetyl-1-methyl-6,7-dihydro-4H-pyrazolo[4,3-c]pyridin-3-yl)-3-isoquinolyl]-2-pyridyl]methoxymethyl]-1-piperidyl]-N-[4-(3-chloro-4-cyano-phenoxy)cyclohexyl]pyridazine-3-carboxamide] | < 1 nM | ≤ 0.1 nM | –
CC(=O)N1CCc2c(c(N3CCCc4cc(-c5cnn(C)c5)c(C(F)F)cc43)nn2C2CCN(C(=O)C3CCN(c4ccc(C(=O)N[C@H]5CC[C@H](Oc6ccc(C#N)c(Cl)c6)CC5)nn4)CC3)CC2)C1 [Compound 2] | < 1 nM | ≤ 0.1 nM | –
COc1cc(O[C@H]2CC[C@H](NC(=O)c3ccc(N4CCC(CN5CCC(n6nc(N7CCCc8cc(-c9cnn(C)c9)c(C(F)F)cc87)c7c6CCN(C(C)=O)C7)CC5)CC4)cc3)CC2)ccc1C#N [Compound 140, 4-[4-[[4-[5-acetyl-3-[7-(difluoromethyl)-6-(1-methylpyrazol-4-yl)-3,4-dihydro-2H-quinolin-1-yl]-6,7-dihydro-4H-pyrazolo[4,3-c]pyridin-1-yl]-1-piperidyl]methyl]-1-piperidyl]-N-[4-(4-cyano-3-methoxy-phenoxy)cyclohexyl]benzamide] | < 1 nM | ≤ 0.1 nM | –
CC(=O)N1CCc2c(c(N3CCCc4cc(-c5cnn(C)c5)c(C(F)F)cc43)nn2[C@H]2[C@@H]3C[C@H]2CN(CC2CCN(c4ccc(C(=O)N[C@H]5CC[C@H](Oc6ccc(C#N)c(Cl)c6)CC5)nn4)CC2)C3)C1 [Compound 150, N-[4-(3-chloro-4-cyano-phenoxy)cyclohexyl]-6-[4-[[rac-(1R,5S)-6-[5-acetyl-3-[7-(difluoromethyl)-6-(1-methylpyrazol-4-yl)-3,4-dihydro-2H-quinolin-1-yl]-6,7-dihydro-4H-pyrazolo[4,3-c]pyridin-1-yl]-3-azabicyclo[3.1.1]heptan-3-yl]methyl]-1-piperidyl]pyridazine-3-carboxamide] | – | 0.1 to 1 nM | 1 to 10 nM
CC(=O)N1CCc2c(c(Nc3ccc(-c4cnn(C)c4)cc3F)nn2C2CCN(CCC3CCN(c4ncc(C(=O)N[C@H]5CC[C@H](Oc6ccc(C#N)c(Cl)c6)CC5)cn4)CC3)CC2)C1 [Compound 10, 2-[4-[2-[4-[5-acetyl-3-[2-fluoro-4-(1-methylpyrazol-4-yl)anilino]-6,7-dihydro-4H-pyrazolo[4,3-c]pyridin-1-yl]-1-piperidyl]ethyl]-1-piperidyl]-N-[4-(3-chloro-4-cyano-phenoxy)cyclohexyl]pyrimidine-5-carboxamide] | – | 0.1 to 1 nM | –
CC(=O)N1CCc2c(c(N3CCCc4cc(-c5cnn(C)c5)c(C(F)F)cc43)nn2C2CCN(C3CCC4(CC3)CN(c3ccc(C(=O)N[C@H]5CC[C@H](Oc6ccc(C#N)c(Cl)c6)CC5)nn3)C4)CC2)C1 [Compound 185, 6-[7-[4-[5-acetyl-3-[7-(difluoromethyl)-6-(1-methylpyrazol-4-yl)-3,4-dihydro-2H-quinolin-1-yl]-6,7-dihydro-4H-pyrazolo[4,3-c]pyridin-1-yl]-1-piperidyl]-2-azaspiro[3.5]nonan-2-yl]-N-[4-(3-chloro-4-cyano-phenoxy)cyclohexyl]pyridazine-3-carboxamide] | – | ≤ 0.1 nM | –
CC(=O)N1CCc2c(c(N3CCCc4cc(-c5cnn(C)c5)c(C(F)F)cc43)nn2[C@H]2CC[C@@H](N(C)C3CCN(c4ccc(C(=O)N[C@H]5CC[C@H](Oc6ccc(C#N)c(Cl)c6)CC5)nn4)CC3)CC2)C1 [Compound 189, 6-[4-[[4-[5-acetyl-3-[7-(difluoromethyl)-6-(1-methylpyrazol-4-yl)-3,4-dihydro-2H-quinolin-1-yl]-6,7-dihydro-4H-pyrazolo[4,3-c]pyridin-1-yl]cyclohexyl]-methyl-amino]-1-piperidyl]-N-[4-(3-chloro-4-cyano-phenoxy)cyclohexyl]pyridazine-3-carboxamide] | – | ≤ 0.1 nM | –
CC(=O)N1CCc2c(c(-c3cccc4cc(-c5ccc(N6CCC7(CC6)CCN(c6ccc(C(=O)N[C@H]8CC[C@H](Oc9ccc(C#N)c(Cl)c9)CC8)nn6)CC7)nc5)ncc34)nn2C2CCOCC2)C1 [Compound 179, 6-[9-[5-[8-(5-acetyl-1-tetrahydropyran-4-yl-6,7-dihydro-4H-pyrazolo[4,3-c]pyridin-3-yl)-3-isoquinolyl]-2-pyridyl]-3,9-diazaspiro[5.5]undecan-3-yl]-N-[4-(3-chloro-4-cyano-phenoxy)cyclohexyl]pyridazine-3-carboxamide] | – | 0.1 to 1 nM | –
